We go through two compounds from patent US20070276024A1, “Methods for Treating Diseases and Conditions with Inverse Agonists and for Screening for Agents Acting as Inverse Agonists” (Inverseon , Inc., priority 2003, published 2007).

“Also recorded” adds a separate entry of the source. Like-named read-outs stand apart in the source and are kept apart here.

Assay [1] has as its system sensitized and allergen-challenged mice. The assay is described as follows: Aminophylline on acute airway effects of nadolol. The assay is classed as in vivo. As to the method: Mice were sensitized to the allergen ovalbumin as described in Example 1.
At time point 1 (time=−10 min) baseline airway resistance of the mice was determined. At time point 2 (time=−5 min) methacholine was infused into mice to reach their EC70.

Assay [2] has as its system asthmatic mice. The assay is described as follows: Airway resistance (Raw) response to methacholine in murine model of asthma. The assay is classed as in vivo, Balb/cJ mice. As to the method:
Balb/cJ mice aged 6 weeks (Jackson Animal Laboratory, Bar Harbor, Maine) were housed under specific pathogen-free conditions and fed a chicken ovalbumin-free diet. The Animal Research Ethics Boards of both the University of Houston and the Baylor College of Medicine approved all experiments reported here. […] Mice were sensitized with subcutaneous injection of 25 μg of ovalbumin adsorbed to aluminum hydroxide on protocol days 2, 9, and 16. Subsequently, mice were given 50 μL of saline solution containing 25 μg of ovalbumin intranasally, on a daily basis, from protocol days 23 through 27. A group of ovalbumin-sensitized saline-challenged mice serves as controls for systemic sensitization and respiratory challenges with ovalbumin. Prior to intranasal administrations, mice were sedated with halothane vapor.
To examine the effects of duration of β-adrenergic ligand therapy on the phenotype of the murine model of asthma, the experimental drugs were administered either acutely or chronically to different groups of asthmatic mice.
Asthmatic mice on acute therapy were given a single intravenous bolus infusion of either β-adrenergic drug or normal saline on protocol day 28, 15 minutes before airway responsiveness to methacholine was determined. […] […] […] These concentrations were chosen based on those producing therapeutic effects in mice in previously published studies. The non-asthmatic mice were fed normal chow.
On protocol day 28, mice were anesthetized, tracheotomized, and connected to a computer-controlled small animal ventilator (Flexivent, Scientific Respiratory Equipment, Inc., Montreal, Canada). Airway resistance (Raw) was measured using the forced oscillation technique. The cellular composition of bronchoalveolar lavage fluid (BALF) was also determined.
To induce airway constriction, a solution containing 150 μg/mL of acetyl-α-methylcholine chloride (methacholine) (Sigma Chemical, St. Louis, Mo.) was infused intravenously at constant rates using a syringe infusion pump (Raze Scientific Instruments, Stanford, Conn.). […] Each methacholine dose was administered for 3 to 5 minutes, during which data were sampled at 1-minute intervals and then averaged.
The complex input impedance of the respiratory system was computed and the value of the real part of respiratory system impedance at 19.75 Hz was taken to reflect the magnitude of airway resistance (Raw). To examine the degree of airway responsiveness of each animal, the values for Raw as a function of methacholine doses were plotted. The largest value for Raw achieved in response to methacholine stimulation was referred to as Rawpeak. For mice that achieved a plateau in the methacholine dose-Raw response curve, the ED50 was calculated by linear interpolation using the GraphPad Prism4 (GraphPad Software, Inc.). […] The Bonferroni test was used to examine the statistical differences between experimental groups. The effects of acute drug treatments on baseline respiratory system mechanics were assessed using a two-tailed paired t-test. A value of P<0.05 was considered significant.
For these experiments, salbutamol was used for chronic administration at 0.5 mg/kg/day with a minipump and for acute administration at 0.15 mg/kg by i.v. bolus 15 minutes prior to challenge. Alprenolol was used at a high dose of 7200 ppm in chow or at a low dose of 720 ppm in chow. Carvedilol was used at a high dose of 2400 ppm in chow or at a low dose of 720 ppm in chow.
The airway resistance (Raw) is plotted as cm H2O ml^−1 s.

In assay [3] the test system is asthmatic mice. Particulars: Callaerts-Vegh et al. 2004, cited from earlier work.
Assay [4] has as its target T1, β2-adrenergic receptor (Mus musculus, UniProt P18762). The assay is described as follows: Immunohistochemistry of β2-adrenergic receptor levels in lungs. The class given is in vivo, mice. On the set-up: from tissue; host or cells: fixed lung sections of mice. The note with it: chronic treatment, versus untreated animals. As to the method: The mice were sacrificed and the lungs excised. Then the lungs were fixed in 4% paraformaldehyde (45 min, 0° C.). After fixation, lungs were washed in PBS (60 min) and placed in increasing concentrations of sucrose (10% sucrose/5% glycine in PBS for 30 min; 20% sucrose/10% glycine in PBS for 30 min; 30% sucrose/25% glycine in PBS for 12 h at 4° C.). Lungs were embedded in OCT and 12-μm sections cut with a Tissue-Tek II cryostat. The sections were air dried and fixed with 4% paraformaldehyde for 15 min. After 3 washes in PBS, the slides were blocked with 5% milk in PBS for 1 h, and then incubated overnight with anti-β2-adrenergic receptor antibody (1:200, Santa Cruz Biotechnology) in blocking solution. Slides were washed in PBS and incubated with secondary antibody (1:200, Cy3 goat anti-rabbit, 16 h at 4° C.). […] After washing with PBS, coverslips were mounted and viewed by epifluorescent microscopy.

For assay [5], the system named is Phospholipase C (PLC-β1). The assay can be described thus: Ratio of phospholipase C to actin in cultured tracheal smooth muscle cells (immunoblot). The assay is classed as cell-based. Particulars: cells from asthmatic mice, chronic high dose treatment. The source says:
Cultured tracheal smooth muscle cells were obtained from mice exposed to the following treatments: NS/NC=nonasthmatic, non-challenged mice; S/C=asthmatic mice; Sal.Ac=asthmatic mice, acute salbutamol treatment; Sal.Ch=asthmatic mice, chronic salbutamol treatment; Nad.Ac=asthmatic mice, acute nadolol high dose treatment; and Nad.Ch=asthmatic mice, chronic nadolol high dose treatment.
After airway function experiments, the trachea were surgically removed from anesthetized mice that had been treated with drugs or vehicle. The trachea was minced and the cells plated and grown in culture. The smooth muscle cells grow faster and take over the culture dish. The cells were grown in medium which contained the drugs used in the treatment or vehicle controls. Phospholipase C (PLC-β1) was determined by immunoblotting with an antibody specific for the enzyme. Actin was used as a loading control and the amount of PLC-β1 was expressed as a ratio to actin.
The phospholipase C protein level was measured in these cultured cells and compared with the level of the structural protein actin as a baseline. The enzyme phospholipase C plays a key role in the pathway leading to asthmatic symptoms, as it cleaves a phosphodiester bond in membrane phospholipids, resulting in the formation of a 1,2-diglyceride. […]
On the technique in general: In western blotting, separated proteins are transferred to a membrane and probed.

Assay [6] addresses T1, β2-adrenergic receptor. The class given is in vivo, mice. The note with it: for increase of the level of β2-adrenergic receptors over the non-treated mice: chronic administration; for Bmax (receptor density) / βmax (receptor density): lung membranes, mean±SEM, n=3-5; for Bmax (receptor density): drug treatment 15 Minutes; for βmax (receptor density): drug treatment 28 Days. As to the method:
β2-adrenergic receptor numbers were measured in asthmatic mice as follows. […] Mice were sacrificed and lung membranes were isolated as follows. Frozen lung tissue was homogenized in an ice-cold buffer containing 0.32 M sucrose and 25 mM Tris (pH 7.4) using a polytron (Pro 200, Pro Scientific, Inc.). The homogenate was centrifuged at 1000×g for 10 min at 4° C. The resulting supernatant was centrifuged at 40,000×g for 20 min at 4° C. The pellet was suspended in an ice-cold 25 mM Tris-HCl buffer (pH 7.4) and centrifuged at 40,000'g for 20 min at 4° C. The final pellet was suspended in 200 μL of 25 mM Tris-HCl (pH 7.4); membrane protein concentration was determined by BCA protein assay kit. […] The incubation was done at 37° C. for 2 h and terminated by rapid vacuum filtration through glass fiber filters. The filters were washed three times with 250 μL of cold wash buffer (25 mM Tris-HCl, pH 7.4) and the radioactivity determined in a counter. […] Receptor densities are expressed as femtomoles of sites per milligram of protein. Bmax is determined by nonlinear regression of the saturation binding curves.

Assay [7] relates to patients with CHF. Particulars: cited from earlier work.
The subject of assay [8] is asthmatic mice. The assay can be described thus: Combination of carvedilol and salbutamol on airway hyperresponsiveness. The class given is in vivo, Balb/cJ mice. Particulars: at the highest dose of methacholine; 28 days treatment. As to the method:
Mice (Balb/cJ) aged 6 weeks were housed under specific pathogen-free conditions and fed a chicken ovalbumin-free diet. Mice were systemically sensitized with ovalbumin adsorbed to aluminum hydroxide. Mice were treated as follows: CAR/SAL 28D=for 28 days mice (n=6-12) were administered carvedilol (2400 ppm in animal chow) and salbutamol (subcutaneous delivery of 0.5 mg/kg/day in an Alzet #2400 osmotic minipump); NTX S/C=mice (n=6-12) no drug treatment for 28 days; CTRL=mice (n=6-12) no drug treatment for 28 days, not subsequently challenged; CARHD 28D=for 28 days mice (n=6-12) were administered carvedilol only (2400 ppm in animal chow); CARHD 28D SAL AC=for 28 days mice (n=6-12) were administered carvedilol (2400 ppm in animal chow) and 15 minutes prior to measuring airway hyperresponsiveness, salbutamol was administered at a dose of 1.2 mg.kg.
To measure airway hyperresponsiveness after 28 days, all mice except the CTRL (control) mice were challenged with ovalbumin and then all mice were anesthetized, tracheotomized, and connected to a Flexivent small animal ventilator to measure airway resistance (Raw) by the forced oscillation technique. To induce airway constriction, a solution containing 150 μg/mL of methacholine was infused using a syringe infusion pump. The methacholine infusion was started at 0.008 mL/min and its rate was doubled stepwise up to a maximum […]. […]

Setting [9] is: asthmatic mice, acute: single intravenous bolus 15 minutes before methacholine.
[10] abbreviates: asthmatic mice, chronic administration, 28 days (in chow; salbutamol by osmotic minipump).

T1 sequence (P18762 whole entry): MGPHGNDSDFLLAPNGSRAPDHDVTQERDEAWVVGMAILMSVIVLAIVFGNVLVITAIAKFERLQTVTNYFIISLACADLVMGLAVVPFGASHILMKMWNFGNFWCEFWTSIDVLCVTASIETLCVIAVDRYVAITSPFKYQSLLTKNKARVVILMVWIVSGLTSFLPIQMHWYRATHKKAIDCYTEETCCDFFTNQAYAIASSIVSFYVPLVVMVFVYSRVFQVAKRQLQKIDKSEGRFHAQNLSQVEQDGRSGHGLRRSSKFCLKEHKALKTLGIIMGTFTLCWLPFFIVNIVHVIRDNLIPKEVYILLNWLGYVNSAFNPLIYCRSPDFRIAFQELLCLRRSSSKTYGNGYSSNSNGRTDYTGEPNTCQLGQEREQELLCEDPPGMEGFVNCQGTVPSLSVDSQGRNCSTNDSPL

With `CC(C)(C)NCC(O)COc1cccc2c1CC(O)C(O)C2` (centres unmarked) [Nadolol, nadolol], the baseline airway resistance entry in assay [1] (pretreated 0.72 mg/kg i.p.) is “same baseline airway resistance”. Also, the “airway resistance upon methacholine challenge” value in assay [1] (pretreated 0.72 mg/kg i.p. 15 minutes prior to methacholine, methacholine infused to EC70) is recorded as around 4.5 units. Also, the “Decreased Raw” value in assay [2] (15 minutes of administration) is recorded as “no”; in assay [2] (2 days of administration), “yes”; in assay [2] (28 days of administration) it was “yes”. For the same compound, the “airway resistance (Raw)” value in assay [2] (asthmatic mice, 1 ppm in chow) was “identical to the untreated mice”. Besides, the “airway responsiveness to methacholine provocation (airway resistance, Raw)” value in assay [2] (setting [9]) is listed as “enhanced the airway responsiveness”; in assay [2] (setting [10]) it was “produced a decrease in airway responsiveness; also recorded: providing protection from airway hyperresponsiveness; also recorded: reduced the responsiveness”. For the same compound, the airway hyperresponsiveness result is recorded as “worsens airway hyperresponsiveness” in assay [3] (administered acutely) and “prevents airway hyperresponsiveness” in assay [3] (administered chronically). In assay [4], the “labeling with anti-β2-adrenergic receptor antibodies in lungs” value is given as “considerably more intense; also recorded: increase in β-adrenergic receptor density”. Moreover, the “phospholipase C (ratio of PLC-β1 to actin)” value in assay [5] is recorded as “significantly decreases the activity of phospholipase C”. In addition, the “Increased β2AR density” value is given as “no” in assay [6] (15 minutes of administration); “yes” in assay [6] (2 days of administration); “increase in receptor density” in assay [6] (2 days of administration, listed as nadolol); “yes” in assay [6] (28 days of administration); “increase in receptor density” in assay [6] (28 days of administration, listed as nadolol). In assay [6], the “increase of the level of β2-adrenergic receptors over the non-treated mice” value is “nearly eightfold increase”. Further, the “Bmax (receptor density)” value in assay [6] is on record as 181.9 ± 48.28 femtomoles of sites per milligram of protein. The “βmax (receptor density)” value in assay [6] is listed as 785.5 ± 154.8 femtomoles of sites per milligram of protein.

`COc1ccccc1OCCNCC(O)COc1cccc2[nH]c3ccccc3c12` (centres unmarked) [Carvedilol, carvedilol]: the “clinical outcome (mortality, benefit over placebo)” value in assay [7] is reported as “significant mortality reduction”. Further, the “Decreased Raw” value is “no” in assay [2] (15 minutes of administration), “no” in assay [2] (2 days of administration) and “yes” in assay [2] (28 days of administration). The “airway responsiveness to methacholine provocation (airway resistance, Raw)” value is listed as “enhanced the airway responsiveness” in assay [2] (setting [9]) and “does reduce airway hyperresponsiveness; also recorded: reduced the responsiveness of asthmatic mice to methacholine provocation; also recorded: providing protection from airway hyperresponsiveness” in assay [2] (setting [10]). In assay [2] (asthmatic mice, chronic delivery, 28 days), the “shift of methacholine dose-airway response relationship” value is recorded as “shifts the sensitivity of the responsiveness to methacholine to lower concentrations; also recorded: shifted the methacholine dose-airway response relationship to the left”. Further, the “bronchoconstriction (airway resistance)” value in assay [8] is “higher bronchoconstriction than these treatments but less than the non-drug treated sensitized and challenged (NTX S/C) mice”. Also, the “Increased β2AR density” value in assay [6] (15 minutes of administration) is recorded as “no”; in assay [6] (2 days of administration), “no”; in assay [6] (28 days of administration), “yes”; in assay [6] (28 days of administration, listed as carvedilol), “increase in receptor density”. For the same compound, in assay [6], the “increase of the level of β2-adrenergic receptors over the non-treated mice” value is given as “over 10 fold”. For the same compound, in assay [6], the “Bmax (receptor density)” value is given as 86.3 ± 19.42 femtomoles of sites per milligram of protein. Also, the “βmax (receptor density)” value in assay [6] was 904.1 ± 43.46 femtomoles of sites per milligram of protein.
